One data set concerns the target T1, human 5-HT3 receptor (Homo sapiens, UniProt P46098).
T1 sequence (P46098 24-478): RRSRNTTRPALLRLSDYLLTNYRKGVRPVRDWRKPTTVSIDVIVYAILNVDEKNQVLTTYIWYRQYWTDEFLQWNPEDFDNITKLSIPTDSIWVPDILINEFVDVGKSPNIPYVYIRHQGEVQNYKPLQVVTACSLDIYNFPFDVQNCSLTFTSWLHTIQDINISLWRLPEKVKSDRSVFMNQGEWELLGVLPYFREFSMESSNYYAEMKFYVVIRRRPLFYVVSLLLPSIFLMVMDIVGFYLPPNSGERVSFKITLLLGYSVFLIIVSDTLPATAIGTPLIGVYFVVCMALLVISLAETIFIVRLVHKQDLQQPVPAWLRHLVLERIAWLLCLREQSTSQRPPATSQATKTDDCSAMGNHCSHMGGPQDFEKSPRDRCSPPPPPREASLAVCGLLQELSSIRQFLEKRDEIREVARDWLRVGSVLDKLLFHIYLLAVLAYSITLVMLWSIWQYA
The experiment in a line: Two-electrode voltage clamp of 5-HT-induced currents in Xenopus oocytes expressing human 5-HT3A receptor. Format: cell-based. The arrangement: host or cells: Xenopus laevis oocytes injected with cRNA. The text has this:
Mature female Xenopus laevis frogs were obtained from Xenopus leavis I, Ann Arbor, MI, USA. Experiments and methods used in this study were in accordance with the Guide for the Care and Use of Laboratory Animals of the National Institutes of Health (Bethesda, MD, USA) and our protocol (A9/08) was approved by the Institutional Animal Care and Use Committee at the College of Medicine and Health Sciences, United Arab Emirates University. Clusters of oocytes were removed surgically under benzocaine (0.03% w/v; Sigma, St.Louis, MO) anesthesia. Individually dissected oocytes were stored for 2 to 8 days in modified Barth’s solution (MBS) containing (in mM): NaCl 88; KCl 1; NaHCO3 2.4; CaCl2; 2; MgSO4 0.8; HEPES 10 (pH 7.5), supplemented with sodium pyruvate 2 mM, penicillin 10,000 IU/L, streptomycin 10 mg/L, gentamicin 50 mg/L, and theophylline 0.5 mM. […] In co-expression of subunit combinations, cDNAs for 5-HT3A and 5-HT3B subunits, were mixed in ratios of 1:1 (or 1:2), respectively. Following day, oocytes were placed in a 0.2 ml recording chamber and superfused at a constant rate of 3 to 5 ml/min. […] The oocytes were impaled with two standard glass microelectrodes filled with a 3 M KCl (1–3 MΩ) and voltage clamped at a holding potential of −70 mV using GeneClamp-500B amplifier (Axon Instruments Inc., Burlingame, CA). […] Compounds were applied by addition to the superfusate. […] Injections were performed 10 min prior to recordings using oil-driven ultra microsyringe pumps (Micro4; WPI, Inc. Sarasota, FL, USA).
The cDNA clones of the human 5-HT3A and 5-HT3B subunits were provided by OriGen Inc. (Rockville, MD). Complementary RNAs (cRNAs) were synthesized in vitro using a mMessage mMachine RNA transcription kit (Ambion Inc., Austin, TX). The quality and size of synthesized cRNAs were confirmed by denatured RNA agarose gels.
For the nonlinear curve fitting and regression fits of the dose-response curves and radio-ligand binding data, the computer software Origin™ 8.5 (Originlab Corp. Northampton, MA, USA) was used. In functional assays, average values were calculated as mean ± standard error means (S.E.M.). Statistical significance was analyzed using ANOVA or Student’s t test and post hoc Bonferroni test was used following ANOVA. Concentration-response curves were obtained by fitting the data to the logistic equation, […]

The target of another data set is T2, human 5-HT3A receptor (Homo sapiens, UniProt P46098).
T2 construct: expressed in transfected cells; host or cells: HEK293-AEQ17 cells (HEK 293 stably expressing apoaequorin), transient transfection
T2 sequence (P46098 24-478): T1 sequence (P46098 24-478)
The format is cell-based. On the procedure:
Cells were seeded in 25-cm^2 cell culture flasks in Dulbecco’s modified Eagle’s medium (DMEM)/Ham’s F12 (1:1) + 10% fetal bovine serum to obtain a cell density of 50% to 70%, and the following day, transiently transfected with cDNA encoding human 5-HT3A receptor (3 µg) using Lipofectamine 2000 reagent (Thermo Fisher Scientific-Invitrogen, Waltham, MA) according to the manufacturer’s instructions. Two days after transfection, cells were harvested by centrifugation and resuspended in 0.5 ml (25-cm^2 flask) DMEM/Ham’s F12 (1:1) + 0.1% bovine serum albumin. The cell suspension was incubated with 10 μM Coelenterazine h (Thermo Fisher Scientific-Invitrogen, Waltham, MA, USA) for three hours at room temperature in the dark. […] Luminescence was measured using a Luminoskan (Thermo Fisher Scientific, Waltham, MA, USA) equipped with an injector and recorded at a sampling rate of 2 Hz for up to 60 s. At the end of the experiments, cells were lysed with Triton X-100 0.1% (v/v) and CaCl2 50 mM, and aequorin luminescence was recorded to obtain the maximum Ca^2+ response. […] Data were exported to software Origin™ 8.5 (Originlab Corp. Northampton, MA, USA).

A further data set deals with T3, human 5-HT3AB receptors (Homo sapiens, UniProt O95264+P46098).
T3 construct: host or cells: Xenopus laevis oocytes, subunits injected at ratios 1:1 or 1:2
T3 sequence (P46098 24-478): T1 sequence (P46098 24-478)
T3 sequence (O95264 22-441): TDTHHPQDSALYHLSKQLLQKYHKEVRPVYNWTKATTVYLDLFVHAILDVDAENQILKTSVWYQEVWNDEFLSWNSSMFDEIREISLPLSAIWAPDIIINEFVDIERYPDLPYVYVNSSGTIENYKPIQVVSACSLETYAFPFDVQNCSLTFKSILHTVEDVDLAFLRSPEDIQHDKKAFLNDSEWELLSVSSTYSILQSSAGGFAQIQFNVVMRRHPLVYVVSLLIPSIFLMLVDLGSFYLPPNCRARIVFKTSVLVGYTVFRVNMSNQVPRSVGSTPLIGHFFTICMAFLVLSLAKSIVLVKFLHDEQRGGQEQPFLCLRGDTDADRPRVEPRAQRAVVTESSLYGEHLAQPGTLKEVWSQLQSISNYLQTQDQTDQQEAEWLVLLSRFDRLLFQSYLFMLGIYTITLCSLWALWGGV
In words: Two-electrode voltage clamp in Xenopus oocytes co-expressing 5-HT3A and 5-HT3B subunits. The format is cell-based. Conditions: 100 µM; 3 µM 5-HT for 5-HT3A and 30 µM 5-HT for 5-HT3AB; n = 5–7, P>0.05. The text has this: Mature female Xenopus laevis frogs were obtained from Xenopus leavis I, Ann Arbor, MI, USA. Experiments and methods used in this study were in accordance with the Guide for the Care and Use of Laboratory Animals of the National Institutes of Health (Bethesda, MD, USA) and our protocol (A9/08) was approved by the Institutional Animal Care and Use Committee at the College of Medicine and Health Sciences, United Arab Emirates University. Clusters of oocytes were removed surgically under benzocaine (0.03% w/v; Sigma, St.Louis, MO) anesthesia. Individually dissected oocytes were stored for 2 to 8 days in modified Barth’s solution (MBS) containing (in mM): NaCl 88; KCl 1; NaHCO3 2.4; CaCl2; 2; MgSO4 0.8; HEPES 10 (pH 7.5), supplemented with sodium pyruvate 2 mM, penicillin 10,000 IU/L, streptomycin 10 mg/L, gentamicin 50 mg/L, and theophylline 0.5 mM. Human 5-HT3A receptor cRNA (3 ng in 50 nl) was injected into each oocyte as described before ([Ashoor et al., 2013]). In co-expression of subunit combinations, cDNAs for 5-HT3A and 5-HT3B subunits, were mixed in ratios of 1:1 (or 1:2), respectively. […] Current responses were digitized by A/D converter and analyzed using pClamp 10.4 (Molecular Devices-Axon Instruments, San Jose, CA USA) or Origin™ (Originlab Corp. Northampton, MA, USA), run on an IBM/PC. […]

The next data set concerns K+ channels. The conditions noted are these: cited from earlier work.
On the set-up of data set [1]: method as in Rollyson et al., 2014; Swain and Kumar Mishra, 2015. Conditions: ref Rollyson et al., 2014; Swain and Kumar Mishra, 2015; cited from earlier work.
The test system of data set [2] is voltage-gated Na+ channels. Conditions: cited from earlier work.
In another data set the test system is Ca2+ channels. Conditions: cited from earlier work.
Details of data set [3]: method as in Lee et al., 1997; Wohlrab et al., 2015. Conditions: assumed value; ref Lee et al., 1997; Wohlrab et al., 2015; cited from earlier work.

Here are results for six compounds from PMC7490547 (Frontiers in Pharmacology, 2020).

Where two headings read alike, the source gives them in different places.

As usually defined, the IC50 is the concentration at which inhibition is half-maximal.

Turning to `CN1[C@@H]2CC[C@H]1C[C@@H](OC(=O)c1cc(Cl)cc(Cl)c1)C2` [MDL72222, Tropanyl 3,5-dichlorobenzoate], the “inhibition of fast inward currents activated by 5-HT (1 μM) or 2-methyl-5-HT (10 μM)” value on human 5-HT3 receptor (0.5 µM, n = 7) was “completely inhibited”.

Consider `NCCc1c[nH]c2ccc(O)cc12` [5-HT, 5-hydroxytryptamine], for which the “luminescence activation in cells not transfected with 5-HT3” value on human 5-HT3A receptor (30 μM, coelenterazine h-loaded HEK-293-AEQ17 cells, n = 4) is on record as “did not cause luminescence activation”. Also, the “slope of the aequorin concentration-response curve” value at human 5-HT3A receptor (HEK-293-AEQ17 cells transfected with human 5-HT3 receptor) stood at 2.7.

Take `COc1cc(C=O)ccc1O` [vanillin]: the “effect on 5-HT3 receptor currents” value on human 5-HT3 receptor (100 µM for 15 min, n = 8, P>0.05) was “did not affect”.

Take `COc1cc(CNC(=O)CCCCCCC(C)C)ccc1O` [dihydrocapsaicin, Dihydrocapsaicin]: the inhibition at 100 µM on human 5-HT3 receptor (read-out: 5-HT3 receptors inhibited to (% )) is 62%.

As to `COc1cc(CNC(=O)CCCC/C=C/C(C)C)ccc1O` [capsaicin, (E)-N-[(4-Hydroxy-3-methoxyphenyl)methyl]-8-methyl-6-nonenamide], the “extent of inhibition among 5-HT3A, 5-HT3AB (1:1) and 5-HT3AB (1:2) receptors” value on human 5-HT3AB receptors was “not statistically different”. In addition, the IC50 with K+ channels (ref Aréchiga-Figueroa et al., 2017) was 10 µM; in the data set on K+ channels (ref Grissmer et al., 1994), 158 µM; in the data set on K+ channels (ref Kuenzi and Dale, 1996), 21 µM; in the data set on K+ channels (ref Wu et al., 2011) it was 103 µM; in data set [2] (ref Bielefeldt, 2000) it was 40 µM; in data set [2] (ref Duan et al., 2007), 39 µM. Further, the concentration for half-maximal inhibition (IC50) in data set [2] (ref Tomohiro et al., 2013) was 100 µM; in data set [2] (ref Wang et al., 2007), 76 µM; in the data set on Ca2+ channels (ref Castillo et al., 2007), 38 µM; in the data set on Ca2+ channels (ref Kuenzi and Dale, 1996), 44 µM. The “LogP (octanol–water partition coefficient)” value in data set [1] is listed as 3.8. The “fraction of topically applied capsaicin absorbed into the skin” value in data set [3] is 2%.

As to `Oc1cc2c(cc1O)CN(C(=S)NCCc1ccc(Cl)cc1)CCC2` [capsazepine], the “change in amplitudes of 5-HT3 receptor-mediated currents, compound alone” value at human 5-HT3 receptor (10 µM, 5-HT 1 µM, n = 4) is recorded as “did not cause any significant change”.
